From ChEMBL document CHEMBL3751774, “Synthesis and anti-tubercular activity of conformationally-constrained and bisquinoline analogs of TMC207” (Medchemcomm, 2015)
≈ marks a conversion by molar mass, not a printed value. Calls of active or inactive are those of the source. The calls are words filed in the database; no cut-off is given here.

Experiments:
[1] = tested on: Mycobacterium tuberculosis; test: Antitubercular activity against Mycobacterium tuberculosis H37Rv assessed as growth inhibition by BACTEC assay; assay type: functional
[2] = Cytotoxicity against African green monkey Vero C1008 cells assessed as reduction in cell viability after 24 hrs by MTS assay; assay type: cell-based; conditions: Chlorocebus sabaeus
[3] = Cytotoxicity against Swiss mouse BMDM assessed as reduction in cell viability after 24 hrs by MTS assay
ATP synthase = test: Inhibition of Mycobacterium tuberculosis ATP synthase; assay type: protein-complex assay
[4] = tested on: Mycobacterium tuberculosis; test: Antitubercular activity against Mycobacterium tuberculosis H37Rv assessed as growth inhibition after 4 weeks; assay type: functional; conditions: 672 h
[5] = tested on: Mycobacterium tuberculosis; test: Antitubercular activity against Mycobacterium tuberculosis H37Rv infected in mouse BMDM assessed as reduction in colony forming units at 4 times MIC incubated for 4 days measured after 4 weeks relative to control; assay type: functional; set-up: scale not given: the % may be the effect or the level left
[6] = tested on: Mycobacterium tuberculosis; test: Antitubercular activity against Mycobacterium tuberculosis H37Rv infected in Swiss mouse assessed as reduction in colony forming units in lungs at 50 mg/kg, po 6 days/week for 28 days measured after 3 to 4 weeks relative to control; assay type: functional
[7] = tested on: Mycobacterium tuberculosis; test: Antitubercular activity against Mycobacterium tuberculosis H37Rv infected in Swiss mouse assessed as mean survival time at 50 mg/kg, po 6 days/week for 28 days (reference value: 27.8 days); assay type: functional
[8] = tested on: Mycobacterium tuberculosis; test: Antitubercular activity against Mycobacterium tuberculosis H37Rv infected in human blood monocyte derived macrophages assessed as reduction in colony forming units at 4 times MIC incubated for 4 days measured after 4 weeks; assay type: functional, organism-based
[9] = tested on: Mycobacterium tuberculosis; test: Antitubercular activity against Mycobacterium tuberculosis H37Rv infected in Swiss mouse assessed as reduction in colony forming units in lungs at 100 mg/kg, po 6 days/week for 28 days measured after 3 to 4 weeks relative to control; assay type: functional
[10] = tested on: Mycobacterium tuberculosis; test: Antitubercular activity against Mycobacterium tuberculosis H37Rv infected in Swiss mouse assessed as mean survival time at 100 mg/kg, po 6 days/week for 28 days (reference value: 27.8 days); assay type: functional
[11] = tested on: Mycobacterium tuberculosis; test: Antitubercular activity against Mycobacterium tuberculosis H37Rv infected in Swiss mouse assessed as mean survival time at 100 mg/kg, po for 28 days (reference value: 27.8 days); assay type: functional
[12] = tested on: Mycobacterium tuberculosis; test: Antitubercular activity against Mycobacterium tuberculosis H37Rv infected in Swiss mouse assessed as reduction in colony forming units in lungs at 100 mg/kg, po for 28 days measured after 3 to 4 weeks relative to control; assay type: functional
[13] = tested on: Mycobacterium tuberculosis; test: Antitubercular activity against Mycobacterium tuberculosis H37Rv infected in Swiss mouse assessed as reduction in colony forming units in lungs at 25 mg/kg, po for 28 days measured after 3 to 4 weeks relative to control; assay type: functional
[14] = tested on: Mycobacterium tuberculosis; test: Antitubercular activity against Mycobacterium tuberculosis H37Rv infected in Swiss mouse assessed as mean survival time at 25 mg/kg, po for 28 days (reference value: 27.8 days); assay type: functional

SMILES | MIC90 [1] [µM] | IC50 (ATP synthase) [nM] | MIC [4] [µM] | other results
COc1nc2ccc(Br)cc2cc1[C@@H](c1ccccc1)[C@@]1(O)c2ccccc2OCC[C@@H]1CN(C)C (racemic) | 22.8 (≈ 12.5 µg/mL) | – | – | –
COc1nc2ccccc2cc1C(c1cc2ccccc2nc1OC)C(O)(CCN(C)C)c1ccc(Br)cc1 (stereo unspecified) | – | 10 | 0.66 (≈ 0.387 µg/mL) | IC50 [2]: > 100000 nM; IC50 [3]: > 100000 nM
COc1nc2ccc(Br)cc2cc1[C@@H](c1ccccc1)[C@@]1(O)c2cc(Cl)ccc2OCC[C@@H]1CN(C)C (racemic) | > 50 | – | – | –
COc1nc2ccccc2cc1C(c1cc2ccccc2nc1OC)C(O)(CCN(C)C)c1ccccc1 (stereo unspecified) | – | 70 | 0.39 (≈ 0.198 µg/mL) | Activity [5]: 90%; IC50 [2]: > 100000 nM; fold change (FC) [6]: 118; MST [7]: 29 days; Activity [8]: Active; IC50 [3]: > 100000 nM; fold change (FC) [9]: 808.22; MST [10]: 25 days
COc1nc2ccc(Br)cc2cc1[C@H](c1ccccc1)[C@@]1(O)c2cc(C)ccc2C[C@@H]1CN(C)C (racemic) | 12.5 (≈ 6.64 µg/mL) | – | – | –
COc1nc2ccccc2cc1C(c1cc2ccccc2nc1OC)C(O)(CCN(C)C)c1cccc(Br)c1 (stereo unspecified) | – | 50 | 1.56 (≈ 0.915 µg/mL) | IC50 [2]: > 100000 nM; IC50 [3]: > 100000 nM
COc1nc2ccc(Br)cc2cc1[C@H](c1ccccc1)[C@@]1(O)c2cc(Br)ccc2CC[C@@H]1CN(C)C (racemic) | > 50 | – | – | –
COc1nc2ccc(Br)cc2cc1[C@@H](c1ccccc1)[C@@]1(O)c2ccccc2CCC[C@@H]1CN(C)C (racemic) | 45.8 (≈ 25 µg/mL) | – | – | –
COc1nc2ccc(Br)cc2cc1[C@H](c1ccccc1)[C@@]1(O)c2ccccc2C[C@@H]1CN(C)C (racemic) | 12.1 (≈ 6.26 µg/mL) | – | – | –
COc1nc2ccc(Br)cc2cc1[C@@H](c1ccccc1)[C@@]1(O)c2ccccc2OC[C@@H]1CN(C)C (racemic) | > 50 | – | – | –
COc1nc2ccc(Br)cc2cc1[C@@H](c1ccccc1)[C@@]1(O)c2ccc(Br)cc2C[C@@H]1CN(C)C (racemic) | > 50 | – | – | –
CN(C)CCC(O)(c1cccc(Br)c1)C1c2cc3ccccc3nc2OCC/C=C\CCOc2nc3ccccc3cc21 (stereo unspecified) | – | 10 | – | –
COc1nc2ccccc2cc1C(c1cc2ccccc2nc1OC)C(O)(CCN(C)C)c1ccc2ccccc2c1 (stereo unspecified) | – | 30 | 0.39 (≈ 0.218 µg/mL) | Activity [5]: 91%; IC50 [2]: > 100000 nM; Activity [8]: Active; IC50 [3]: > 100000 nM
C=CCOc1nc2ccccc2cc1C(c1cc2ccccc2nc1OCC=C)C(O)(CCN(C)C)c1ccc(Br)cc1 (stereo unspecified) | – | 280 | > 50 | –
CC[C@@H](CO)NCCN[C@@H](CC)CO [ETHAMBUTOL] | – | – | – | MST [11]: 29 days; fold change (FC) [12]: 26.94
COc1nc2ccc(Br)cc2cc1[C@@H](c1ccccc1)[C@@]1(O)c2cc(Br)ccc2CC[C@@H]1CN(C)C (racemic) | > 50 | – | – | –
COc1nc2ccc(Br)cc2cc1[C@@H](c1ccccc1)[C@@]1(O)c2ccccc2CC[C@@H]1CN(C)C (racemic) | > 50 | – | – | –
C=CCOc1nc2ccccc2cc1C(c1cc2ccccc2nc1OCC=C)C(O)(CCN(C)C)c1ccccc1 (stereo unspecified) | – | 40 | > 50 | –
COc1nc2ccc(Br)cc2cc1[C@H](c1ccccc1)[C@@]1(O)c2ccc(Br)cc2C[C@@H]1CN(C)C (racemic) | > 50 | – | – | –
COc1nc2ccc(Br)cc2cc1[C@H](c1ccccc1)[C@@]1(O)c2ccccc2OC[C@@H]1CN(C)C (racemic) | > 50 | – | – | –
CO[C@H]1/C=C/O[C@@]2(C)Oc3c(C)c(O)c4c(O)c(c(/C=N/N5CCN(C)CC5)c(O)c4c3C2=O)NC(=O)/C(C)=C\C=C\[C@H](C)[C@H](O)[C@@H](C)[C@@H](O)[C@@H](C)[C@H](OC(C)=O)[C@@H]1C [RIFAMPIN] | – | – | – | Activity [5]: 98%
NNC(=O)c1ccncc1 [ISONIAZID] | – | – | – | fold change (FC) [13]: 257.08; Activity [5]: 98%; MST [14]: 29 days
COc1nc2ccc(Br)cc2cc1[C@H](c1ccccc1)[C@@]1(O)c2ccccc2CC[C@@H]1CN(C)C (racemic) | > 50 | – | – | –
COc1nc2ccc(Br)cc2cc1[C@H](c1ccccc1)[C@@]1(O)c2cc(Cl)ccc2OCC[C@@H]1CN(C)C (racemic) | > 50 | – | – | –
COc1nc2ccccc2cc1C(c1cc2ccccc2nc1OC)C(O)(CCN(C)C)c1cccc2ccccc12 (stereo unspecified) | – | 1 | 0.7 (≈ 0.39 µg/mL) | IC50 [2]: > 100000 nM; IC50 [3]: > 100000 nM
COc1nc2ccc(Br)cc2cc1[C@@H](c1ccccc1)[C@@]1(O)c2cc(C)ccc2C[C@@H]1CN(C)C (racemic) | > 50 | – | – | –
C=CCCOc1nc2ccccc2cc1C(c1cc2ccccc2nc1OCCC=C)C(O)(CCN(C)C)c1ccc(Br)cc1 (stereo unspecified) | – | 80 | 1.56 (≈ 1.04 µg/mL) | IC50 [2]: > 100000 nM; IC50 [3]: > 100000 nM
COc1nc2ccc(Br)cc2cc1[C@@H](c1ccccc1)[C@@]1(O)c2ccccc2C[C@@H]1CN(C)C (racemic) | 48.3 (≈ 25 µg/mL) | – | – | –
C=CCOc1nc2ccccc2cc1C(c1cc2ccccc2nc1OCC=C)C(O)(CCN(C)C)c1cccc(Br)c1 (stereo unspecified) | – | 30 | > 50 | –
